Consider 11 molecules from DBAASP.

Structures are written as SMILES. ≈ marks a conversion by molar mass, not a printed value. Bounds are passed on as bounds.

Among the test systems are Escherichia coli O111; Leuconostoc lactis; Staphylococcus aureus; Listeria innocua; Pasteurella multocida; Bacillus cereus; Micrococcus luteus; Escherichia coli; Streptococcus uberis.
What all share (assay): ≥ marks a high value that may be exact or a test limit, other limits are often not marked, values filed in µg/mL are converted to µM
Experiment [1] deals with Staphylococcus epidermidis.
Experiment [2] has as its system Cronobacter sakazakii DPC 6440.
Experiment [3] deals with Listeria monocytogenes LO28.
Experiment [4] deals with Bacillus subtilis CMCC 63501.
Experiment [5] deals with Escherichia coli ATCC 25922.
Experiment [6] relates to Staphylococcus aureus ATCC 29213.
Experiment [7] deals with Salmonella enterica subsp. enterica serovar Typhimurium C77-31.
In experiment [8] the test system is Enterococcus faecalis ATCC 29212.
Experiment [9] concerns Pseudomonas aeruginosa ATCC 27853.
The test system of experiment [10] is Salmonella enterica subsp. enterica serovar Pullorum C79-13.
In experiment [11] the test system is Staphylococcus epidermidis ATCC 12228.

Usually MIC stands for the least concentration at which growth counts as inhibited. In the experiment with Escherichia coli O111, `CC[C@H](C)[C@H](NC(=O)[C@H](CO)NC(=O)[C@@H]1CCCN1C(=O)[C@H](C)NC(=O)CNC(=O)[C@H](CC(C)C)NC(=O)[C@H](CCCN=C(N)N)NC(=O)[C@H](CCSC)NC(=O)[C@H](CCCN=C(N)N)NC(=O)[C@H](CCCN=C(N)N)NC(=O)[C@H](CCC(N)=O)NC(=O)[C@H](Cc1c[nH]c2ccccc12)NC(=O)[C@H](CCC(N)=O)NC(=O)[C@@H](N)Cc1ccc(O)cc1)C(=O)N[C@H](C(=O)O)[C@@H](C)O` [YQWQRRMRLGAPSIT] had an MIC not below 322 µM.

In the case of `CC[C@H](C)[C@H](NC(=O)[C@@H](NC(=O)[C@H](CO)NC(=O)[C@H](C)NC(=O)[C@@H](NC(=O)[C@H](CCCCN)NC(=O)[C@H](CCCCN)NC(=O)[C@@H](NC(=O)[C@@H](NC(=O)[C@H](CC(=O)O)NC(=O)[C@H](Cc1ccccc1)NC(=O)[C@H](CC(C)C)NC(=O)CN)C(C)C)[C@@H](C)CC)C(C)C)C(C)C)C(=O)N[C@@H](CCCCN)C(=O)N[C@@H](CCCCN)C(=O)N[C@@H](CC(C)C)C(N)=O` [GLFDVIKKVASVIKKL], the MIC with Leuconostoc lactis is 1.71 µM (≈ 3 µg/mL); in the experiment on Staphylococcus aureus, 56.9 µM (≈ 99.9 µg/mL); in experiment [1], 6.83 µM (≈ 12 µg/mL); with Listeria innocua, 28.4 µM (≈ 50 µg/mL); against Pasteurella multocida it was not below 56.9 µM; against Bacillus cereus, 14.2 µM (≈ 25 µg/mL). Also, the MIC in the experiment on Micrococcus luteus was 28.4 µM (≈ 50 µg/mL); with Escherichia coli it was more than 56.9 µM; in the experiment on Streptococcus uberis, 28.4 µM (≈ 50 µg/mL).

Consider `CC[C@H](C)[C@H](NC(=O)[C@H](C)NC(=O)[C@@H]1CCCN1C(=O)[C@H](CC(C)C)NC(=O)[C@@H](NC(=O)[C@H](Cc1cnc[nH]1)NC(=O)[C@H](CO)NC(=O)[C@@H](NC(=O)[C@@H](NC(=O)[C@H](CO)NC(=O)CNC(=O)[C@H](CC(C)C)NC(=O)[C@H](CC(C)C)NC(=O)CNC(=O)[C@H](CC(C)C)NC(=O)[C@H](CC(C)C)NC(=O)CN)C(C)C)C(C)C)C(C)C)C(=O)N[C@H](C(=O)N[C@@H](CCC(N)=O)C(=O)N[C@@H](Cc1cnc[nH]1)C(=O)N[C@@H](CC(C)C)C(N)=O)[C@@H](C)O` [GLLGLLGSVVSHVLPAITQHL], for which the minimal inhibitory concentration (MIC) against Leuconostoc lactis is 2.82 µM (≈ 6 µg/mL); in the experiment with Staphylococcus aureus, 23.5 µM (≈ 50 µg/mL); in [1], 23.5 µM (≈ 50 µg/mL); against Listeria innocua it was not below 47.1 µM; with Pasteurella multocida it was not below 47.1 µM; with Bacillus cereus, not below 47.1 µM. Besides, the MIC was 23.5 µM (≈ 50 µg/mL) against Micrococcus luteus, more than 47.1 µM with Escherichia coli and 23.5 µM (≈ 50 µg/mL) with Streptococcus uberis.

For the molecule `CC[C@H](C)[C@H](NC(=O)[C@@H](N)Cc1c[nH]c2ccccc12)C(=O)N[C@@H](CCC(N)=O)C(=O)N1CCC[C@H]1C(=O)N[C@@H](C)C(=O)N[C@H](C(=O)N[C@@H](C)C(=O)N[C@H](C(=O)N[C@H](C(=O)N1CCC[C@H]1C(=O)N[C@@H](Cc1ccc(O)cc1)C(=O)N[C@H](C(=O)N[C@@H](CCCN=C(N)N)C(=O)N[C@@H](Cc1ccc(O)cc1)C(=O)N[C@@H](CC(C)C)C(=O)O)C(C)C)[C@@H](C)CC)C(C)C)[C@@H](C)O` [WIQPATAVIPYVRYL], the MIC in experiment [2] was not below 625 µM; in [3], not below 156 µM.

`CC[C@H](C)[C@H](NC(=O)[C@H](CO)NC(=O)[C@@H]1CCCN1C(=O)[C@H](C)NC(=O)CNC(=O)[C@H](CC(C)C)NC(=O)[C@H](CCCCN)NC(=O)[C@H](CCCN=C(N)N)NC(=O)[C@H](CCSC)NC(=O)[C@H](CCCN=C(N)N)NC(=O)[C@H](CCCN=C(N)N)NC(=O)[C@H](CCC(N)=O)NC(=O)[C@@H](N)Cc1c[nH]c2ccccc12)C(=O)N[C@H](C(=O)O)[C@@H](C)O` [WQRRMRKLGAPSIT] gave an MIC in the experiment with Escherichia coli O111 not below 58.8 µM.

As to `NC(=O)[C@H](Cc1ccccc1)NC(=O)[C@H](CCCN=C(N)N)NC(=O)[C@H](Cc1ccccc1)NC(=O)[C@H](CCCN=C(N)N)NC(=O)[C@H](CS)NC(=O)[C@H](Cc1ccccc1)NC(=O)[C@H](CCCN=C(N)N)NC(=O)[C@H](CCCN=C(N)N)NC(=O)[C@H](CCCN=C(N)N)NC(=O)[C@H](CS)NC(=O)[C@H](CCCN=C(N)N)NC(=O)[C@H](Cc1ccccc1)NC(=O)[C@H](CCCN=C(N)N)NC(=O)[C@@H](N)Cc1ccccc1` [FRFRCRRRFCRFRF], the MIC in [4] amounted to 2 µM (≈ 4.11 µg/mL); in experiment [5], 1 µM (≈ 2.05 µg/mL); in [6], 2 µM (≈ 4.11 µg/mL); in experiment [7], 2 µM (≈ 4.11 µg/mL); in experiment [8], 4 µM (≈ 8.21 µg/mL); in [9], 4 µM (≈ 8.21 µg/mL). For the same molecule, the minimum inhibitory concentration (MIC) in [10] was 1 µM (≈ 2.05 µg/mL); in experiment [11] it was 2 µM (≈ 4.11 µg/mL).

With `CC[C@H](C)[C@H](NC(=O)[C@@H](N)Cc1c[nH]c2ccccc12)C(=O)N[C@@H](CCC(N)=O)C(=O)N1CCC[C@H]1C(=O)N[C@@H](CCCCN)C(=O)N[C@H](C(=O)N[C@@H](CCCCN)C(=O)N[C@H](C(=O)N[C@H](C(=O)N1CCC[C@H]1C(=O)N[C@@H](Cc1ccc(O)cc1)C(=O)N[C@H](C(=O)N[C@@H](CCCN=C(N)N)C(=O)N[C@@H](C)C(=O)N[C@@H](CC(C)C)C(=O)O)C(C)C)[C@@H](C)CC)C(C)C)[C@@H](C)O` [WIQPKTKVIPYVRAL], the MIC in experiment [2] is not below 78.1 µM; in [3] it was 19.5 µM (≈ 35.4 µg/mL).

Take `CC[C@H](C)[C@H](NC(=O)[C@@H](NC(=O)CN)C(C)C)C(=O)N[C@@H](CC(=O)O)C(=O)N[C@@H](C)C(=O)N[C@@H](C)C(=O)N[C@@H](C)C(=O)N[C@@H](CCCCN)C(=O)N[C@H](C(=O)N[C@H](C(=O)N[C@@H](CC(N)=O)C(=O)N[C@H](C(=O)N[C@@H](CC(C)C)C(=O)N[C@@H](CCCCN)C(=O)N[C@@H](CC(N)=O)C(=O)N[C@@H](CC(C)C)C(=O)N[C@@H](Cc1ccccc1)C(N)=O)C(C)C)C(C)C)C(C)C` [GVIDAAAKVVNVLKNLF]: the MIC is 6.78 µM (≈ 12 µg/mL) in the experiment with Leuconostoc lactis; more than 56.5 µM in the experiment with Staphylococcus aureus; not below 56.5 µM in [1]; not below 56.5 µM against Listeria innocua; not below 56.5 µM with Pasteurella multocida; not below 56.5 µM in the experiment with Bacillus cereus. The MIC in the experiment with Micrococcus luteus was not below 56.5 µM; against Escherichia coli it was more than 56.5 µM; against Streptococcus uberis it was 28.2 µM (≈ 50 µg/mL).

Turning to `CCC(C)[C@H](N=C(O)C(CO)N=C(O)[C@H](CO)N=C(O)[C@@H](N=C(O)C(CC(C)C)N=C(O)CN)C(C)C)C(O)=NCC(O)=N[C@@H](CCCNC(=N)N)C(O)=N[C@@H](C)C(O)=N[C@@H](CC(C)C)C(O)=NCC(O)=NCC(O)=N[C@@H](CC(C)C)C(O)=N[C@@H](CC(C)C)C(O)=N[C@@H](C)C(O)=NC(CC(=O)O)C(O)=NC(C(O)=N[C@@H](C(O)=N[C@H](CCCCN)C(O)=N[C@H](CO)C(O)=N[C@H](CCCCN)C(O)=NCC(O)=N[C@H](CCC(=N)O)C(=O)N1CCCC1C(O)=N[C@H](C)C(=O)O)C(C)C)C(C)C` (some centres undefined) [GLVSSIGRALGGLLADVVKSKGQPA], the MIC with Leuconostoc lactis was not below 41.8 µM; in the experiment with Staphylococcus aureus, more than 41.8 µM; in experiment [1] it was not below 41.8 µM; in the experiment with Listeria innocua it was not below 41.8 µM; against Pasteurella multocida it was 10.4 µM (≈ 25 µg/mL); in the experiment on Bacillus cereus, not below 41.8 µM. The MIC was not below 41.8 µM in the experiment with Micrococcus luteus, more than 41.8 µM in the experiment with Escherichia coli and not below 41.8 µM in the experiment on Streptococcus uberis.

Turning to `CC[C@H](C)[C@H](NC(=O)[C@@H](N)Cc1c[nH]c2ccccc12)C(=O)N[C@@H](CCC(N)=O)C(=O)N1CCC[C@H]1C(=O)N[C@@H](CCCCN)C(=O)N[C@H](C(=O)N[C@@H](C)C(=O)N[C@H](C(=O)N[C@H](C(=O)N1CCC[C@H]1C(=O)N[C@@H](Cc1ccc(O)cc1)C(=O)N[C@H](C(=O)N[C@@H](CCCN=C(N)N)C(=O)N[C@@H](Cc1ccc(O)cc1)C(=O)N[C@@H](CC(C)C)C(=O)O)C(C)C)[C@@H](C)CC)C(C)C)[C@@H](C)O` [WIQPKTAVIPYVRYL], the MIC in experiment [2] is not below 312 µM; in [3], not below 39.1 µM.

Take `CC[C@H](C)[C@H](NC(=O)[C@@H](NC(=O)[C@H](CCCCN)NC(=O)[C@@H](N)[C@@H](C)O)C(C)C)C(=O)N1CCC[C@H]1C(=O)N[C@@H](Cc1ccc(O)cc1)C(=O)N[C@H](C(=O)N[C@@H](CCCN=C(N)N)C(=O)N[C@@H](Cc1ccc(O)cc1)C(=O)N[C@@H](CC(C)C)C(=O)O)C(C)C` [TKVIPYVRYL]: the results for the MIC in [2] and in experiment [3] were not below 156 µM and not below 78.1 µM, respectively.
